The subject of the assay is CEM cells HIV-1 protection, formazan growth assay. As to the kind of experiment: NCI AIDS Antiviral Assay. To be noted: for IC50: measured here: growth of uninfected CEM cells. An outline of the steps: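 Human CEM cells, uninfected and HIV-1-infected, received five drug concentrations, and growth was read by soluble formazan assay. Compounds giving at least 50% protection were retested; reproducible 100% protection defined confirmed active.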

Values joined by “and” are separate entries in the source; they are usually repeats but may differ in a detail not shown here. Equal values may be shown once. Active and inactive are the calls of the source.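 How the source made its calls: active means compounds giving half or more protection of infected cells from virus-caused growth loss, again on retest; inactive means the rest.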 A value given as a limit tells only on which side of the number the result lay.

A word on the EC50: it is the concentration at which the effect is half-maximal. As a reminder, the IC50 is the concentration that inhibits the measured activity by half. Higher therefore signals weaker potency in that assay.

With `CCN=C(N)C(C)SS(=O)(=O)O` (stereo unspecified), the EC50 is over 200 µM and the IC50 is 170 µM.

With `COC1OC2COc3ccccc3OC2C2C1N2C(N)=O` (stereo unspecified), the outcome was inactive.

As for `Cc1cccc(C)c1NC(=O)CCC(=O)NNC(=O)c1cc(O)c2ccccc2c1`, the EC50 is over 234 µM and the IC50 was 33.9 µM.

Consider `CN1C(=O)C=C(C=Nc2ccc(-c3ccccc3)cc2)C2CCCCC21` (stereo unspecified), for which the EC50 is over 200 µM and the IC50 was determined as 2.29 µM.

With `Cc1cc2c(c(=O)o1)C(=O)CC(C)O2` (stereo unspecified), the EC50 is over 776 µM and the IC50 came to 117 µM.

As for `CCOC(=O)C1=C(C)OC(=O)[C@@]2(OC)C=C(Cl)[C@@]12C`, the EC50 was over 200 µM and the concentration for half-maximal inhibition (IC50) is over 200 µM.

For `CS(=O)(=O)Nc1ccc2c(c1)N(S(C)(=O)=O)CC2CCl` (stereo unspecified), the EC50 is over 200 µM and the 50% inhibitory concentration (IC50) is 166 µM.

Regarding `COC(=O)CCC(=O)C(CC(=O)OC)C(=O)CCC(=O)NCCc1ccccc1` (stereo unspecified), the EC50 is over 27.5 µM and the IC50 is over 27.5 µM.

As to `CN1C/C(=C\c2cccs2)c2[nH]c(=O)c(C#N)c(-c3cccs3)c2C1`, the EC50 was over 200 µM and the half-maximal inhibitory concentration (IC50) was over 200 µM.

`CCOC(=O)C(CC/C=C\c1ccccc1)N1CCC[C@H]1C(=O)OC` (stereo partly specified): the outcome was inactive.

In the case of `O/N=C1/CCCC/C1=C/C=C/c1ccccc1`, the EC50 is over 16.6 µM and the 50% inhibitory concentration (IC50) was over 16.6 µM.

Take `Cc1ccc(S(=O)(=O)OC[C@@H]2CO2)cc1`: the EC50 is over 115 µM and the IC50 was determined as 14.1 µM.

As to `O=C1CCCCC/C1=C\c1ccc([N+](=O)[O-])cc1`, the EC50 was over 200 µM and the IC50 is 25.7 µM.

Take `COc1ccc(NC2=CC(C)(C(=O)O)OC2=O)cc1` (stereo unspecified): the EC50 is over 200 µM and the IC50 is over 200 µM.

Turning to `CC1CC(=O)N(N(C)C)C(C#N)(C#N)C1(C#N)C#N` (stereo unspecified), the EC50 was over 200 µM and the IC50 stood at 3.16 µM.

In the case of `N/N=C(/Cc1ccccc1)NNC(N)=S`, the EC50 is over 427 µM and the 50% inhibitory concentration (IC50) was 263 µM.

As to `CC(SC(=S)N1CCOCC1)c1cc2oc(=O)n(C)c2cc1Cl` (stereo unspecified), the EC50 was over 10 µM and the 50% inhibitory concentration (IC50) was over 10 µM.

For `CCOC(=O)c1nc2ccc(C(F)(F)F)cc2nc1Nc1cc(OC)c(OC)c(OC)c1`, the EC50 is over 200 µM and the concentration for half-maximal inhibition (IC50) was over 200 µM.

Turning to `COc1cc(C)c(C(=O)/C=C/c2cc(OC)c(O)c(OC)c2)cc1O`, the EC50 is over 275 µM and the IC50 is 12.9 µM.

As for `O=C(CCC(=O)Nc1ccc(Cl)c(Cl)c1)CC(=O)c1ccc(Br)cc1`, the EC50 was over 282 µM and the 50% inhibitory concentration (IC50) was over 282 µM.

For `CC(C)(CN1CCCCC1)C(=O)CC(SCCS(=O)(=O)O)c1ccc(Cl)c(Cl)c1` (stereo unspecified), the EC50 was over 200 µM and the IC50 amounted to 1.2 µM.

Take `COc1cccc2c1OC1(C=C2)Oc2ccccc2C(=O)N1C` (stereo unspecified): the EC50 was over 200 µM and the IC50 amounted to 30.9 µM.

Take `C=C(C)C1CC[C@]2(C(=O)O)CCC3(C)[C@H](CCC4[C@@]5(C)CC[C@H](OC6OC(CO)C(O)C6OC6OC(C)C(O)C(O)C6O)[C@@](C)(CO)C5CC[C@]43C)C12` (stereo partly specified): the result was inactive.

As to `COc1ccc(C2SC(N)=Nc3c2c(C)nn3C(=O)c2ccccc2O)cc1OC` (stereo unspecified), the EC50 is over 20 µM and the concentration for half-maximal inhibition (IC50) came out at 0.617 µM.

As for `O=C(O)C(=O)/C=C\c1ccc(Cl)cc1`, the EC50 was over 617 µM and the half-maximal inhibitory concentration (IC50) amounted to 191 µM.

In the case of `CN(C)NC(=S)NC12CC3CC(CC(C3)C1)C2`, the result was inactive.

On to `O=C(Cn1c(=O)ccc2ccccc21)Cn1c(=O)ccc2ccccc21`, for which the EC50 was over 200 µM and the IC50 is over 200 µM.

For the molecule `CC1CCOC(Sc2ccccc2)C1` (stereo unspecified), the result was inactive.

With `COc1ccc(Nc2nnc(CCCCCCCCc3nnc(Nc4ccc(OC)cc4)o3)o2)cc1`, the EC50 was over 200 µM and the IC50 is over 200 µM.

As for `CC(C)CCCC(C)[C@H]1CC[C@@H]2[C@H]3CC[C@H]4C[C@@H](CCC=C(c5cc(Cl)c(OCc6cccc([N+](=O)[O-])c6)c(C(=O)O)c5)c5cc(Cl)c(OCc6cccc([N+](=O)[O-])c6)c(C(=O)O)c5)CC[C@]4(C)[C@@H]3CC[C@]12C` (stereo partly specified), the EC50 is over 200 µM and the IC50 was over 200 µM.

On to `N#Cc1nc(/C=C/c2cccnc2)oc1N`, for which the EC50 is over 200 µM and the IC50 is over 200 µM.

As to `COC(=O)c1c(C(=O)OC)c(C(=O)OC)c(C(=O)OC)c1C(=O)OC`, the result was inactive.

Take `O=S(=O)(O)SCCCNCCCCCCNCCCSS(=O)(=O)O`: the EC50 is over 200 µM and the 50% inhibitory concentration (IC50) was 129 µM.

For the molecule `O=S1(=O)c2ccccc2N2C(c3ccccc3)=NOC2(c2ccccc2)CC1c1ccc(Br)cc1` (stereo unspecified), the outcome was inactive.

Consider `Cc1cc(S(=O)(=O)Nc2nc(N)nc(N(C)C)n2)c(S)cc1Cl`, for which the concentration giving a half-maximal response (EC50) was over 182 µM and the concentration for half-maximal inhibition (IC50) came out at 166 µM.

As for `CC(O)(c1ccccc1)c1nccc2ccccc12` (stereo unspecified), the EC50 was over 200 µM and the IC50 worked out at 77.6 µM.

In the case of `O=c1[nH]c(=S)[nH]c2nc[nH]c12`, the EC50 is over 200 µM and the 50% inhibitory concentration (IC50) is over 200 µM.

Regarding `CCN(CC)c1ccc2cc(C(N)=S)c(=N)oc2c1`, the EC50 is over 61.7 µM and the half-maximal inhibitory concentration (IC50) was determined as 20.4 µM.

`COc1ccccc1NC(=S)N/N=C/c1c(C)n(C)n(-c2ccccc2)c1=O`: the EC50 is over 200 µM and the half-maximal inhibitory concentration (IC50) came out at 64.6 µM.

As to `O=C1OC(=O)C2C1CC1C(=O)OC(=O)C12` (stereo unspecified), the EC50 is over 1200 µM and the IC50 is over 1200 µM.

For the molecule `O=C1Cc2c([nH]c3cc(Br)ccc23)-c2ccccc2N1`, the EC50 was over 200 µM and the IC50 came to 8.91 µM.

For the molecule `Cc1nc(NCc2ccccc2)c2cc[nH]c2n1`, the EC50 was over 174 µM and the IC50 was 107 µM.

On to `CO[C@@H]1[C@H](O)CC[C@]2(CO2)[C@H]1[C@@]1(C)O[C@@H]1CC=C(C)C`, for which the EC50 is over 200 µM and the half-maximal inhibitory concentration (IC50) came to 85.1 µM.

For `O=C1CC(C2(O)C(=O)Nc3ccc([N+](=O)[O-])cc32)c2ccccc21` (stereo unspecified), the EC50 was over 55 µM and the IC50 is over 55 µM.

As for `C=C(CC/C=C\CO)[Si](C)(C)C`, the EC50 is over 141 µM and the IC50 was over 141 µM.

For the molecule `COc1c(Br)cc(Br)c(OC)c1-c1ccc[nH]1`, the EC50 is over 38 µM and the IC50 is over 38 µM.

Consider `N#CC12C(=O)N3C(=NC(c4ccccc4)NC3c3ccccc3)C1(C#N)C(c1ccccc1)NC1=C2CCCC1` (stereo unspecified), for which the EC50 was over 200 µM and the IC50 is over 200 µM.

Regarding `CC(=O)N(O)C(C)=O`, the EC50 was over 2140 µM and the IC50 amounted to 1780 µM.

For the molecule `O=C(O)CCCc1ccc2c(c1)CC1(C2)Cc2ccc(CCCC(=O)O)cc2C1`, the EC50 was over 200 µM and the concentration for half-maximal inhibition (IC50) is 141 µM.

Regarding `CC(C)=CCN1Cc2c(Cl)ccc3[nH]c(=S)n(c23)C[C@@H]1C`, the 50% effective concentration (EC50) was 0.00224 µM and the IC50 turned out to be 5.89 µM.

Consider `O=C1OC(=O)C2C1C=C(c1ccccc1)C1C3C=CC(C4C(=O)OC(=O)C34)C21` (stereo unspecified), for which the EC50 was over 200 µM and the IC50 is over 200 µM.

`Nc1ccccc1SSc1ccccc1N`: the EC50 is over 200 µM; the result was inactive; the IC50 is 25.1 µM and 5.37 µM.

In the case of `CC(NC(=O)Cc1ccccc1)NC(=O)C(C)C(=O)NCc1ccccc1` (stereo unspecified), the result was inactive.

On to `O=C1c2ccccc2CCCCCCCCCCC12OCCCO2`, for which the EC50 was over 200 µM and the IC50 is over 200 µM.

The values above are taken from PubChem BioAssay AID179 (DTP/NCI, 2004).
